Eight compounds from ChEMBL document CHEMBL5291721, “A preclinical secondary pharmacology resource illuminates target-adverse drug reaction associations of marketed drugs” (Nat Commun, 2023) can be followed below.

A value given as a limit tells only on which side of the number the result lay.

Among the targets are Histamine H2 receptor (Homo sapiens, UniProt P25021); D(1A) dopamine receptor (Homo sapiens, UniProt P21728); D(3) dopamine receptor (Homo sapiens, UniProt P35462); Histamine H3 receptor (Homo sapiens, UniProt Q9Y5N1).
Assay [1] addresses T1, Histamine H1 receptor (Homo sapiens, UniProt P35367). The format is functional, cell-based.
Assay [2] concerns the target T1, Histamine H1 receptor. Type of assay: functional, cell-based. This is another data set of the same source.
The target of assay [3] is 5-hydroxytryptamine receptor 2B (Homo sapiens, UniProt P41595).
Sequence of 5-hydroxytryptamine receptor 2B (P41595 whole entry): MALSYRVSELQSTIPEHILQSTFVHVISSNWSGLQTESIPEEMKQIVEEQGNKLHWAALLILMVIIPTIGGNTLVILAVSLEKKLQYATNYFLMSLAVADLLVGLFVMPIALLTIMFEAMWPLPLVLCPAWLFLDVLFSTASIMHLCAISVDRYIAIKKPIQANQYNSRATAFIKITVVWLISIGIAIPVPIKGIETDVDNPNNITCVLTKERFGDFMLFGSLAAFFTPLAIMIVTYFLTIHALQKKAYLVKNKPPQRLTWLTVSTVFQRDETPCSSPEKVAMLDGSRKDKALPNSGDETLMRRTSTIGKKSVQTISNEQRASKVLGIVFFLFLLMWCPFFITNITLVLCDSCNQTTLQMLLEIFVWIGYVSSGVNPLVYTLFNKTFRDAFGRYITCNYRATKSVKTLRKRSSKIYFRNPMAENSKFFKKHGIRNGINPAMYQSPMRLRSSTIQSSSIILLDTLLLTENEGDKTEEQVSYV
The next assay has as its target T2, Adenosine receptor A3 (Homo sapiens, UniProt P0DMS8).
T2 sequence (P0DMS8 whole entry): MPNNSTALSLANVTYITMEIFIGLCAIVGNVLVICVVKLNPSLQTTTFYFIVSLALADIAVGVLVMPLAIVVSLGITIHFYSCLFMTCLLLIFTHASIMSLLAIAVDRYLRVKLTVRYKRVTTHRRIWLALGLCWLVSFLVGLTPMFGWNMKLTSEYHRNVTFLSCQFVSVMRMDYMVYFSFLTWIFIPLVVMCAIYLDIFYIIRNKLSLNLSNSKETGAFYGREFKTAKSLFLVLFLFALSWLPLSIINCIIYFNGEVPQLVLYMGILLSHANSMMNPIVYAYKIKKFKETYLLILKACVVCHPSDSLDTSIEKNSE

Another assay concerns the target T3, Estrogen receptor (Homo sapiens, UniProt P03372).
T3 sequence (P03372 whole entry): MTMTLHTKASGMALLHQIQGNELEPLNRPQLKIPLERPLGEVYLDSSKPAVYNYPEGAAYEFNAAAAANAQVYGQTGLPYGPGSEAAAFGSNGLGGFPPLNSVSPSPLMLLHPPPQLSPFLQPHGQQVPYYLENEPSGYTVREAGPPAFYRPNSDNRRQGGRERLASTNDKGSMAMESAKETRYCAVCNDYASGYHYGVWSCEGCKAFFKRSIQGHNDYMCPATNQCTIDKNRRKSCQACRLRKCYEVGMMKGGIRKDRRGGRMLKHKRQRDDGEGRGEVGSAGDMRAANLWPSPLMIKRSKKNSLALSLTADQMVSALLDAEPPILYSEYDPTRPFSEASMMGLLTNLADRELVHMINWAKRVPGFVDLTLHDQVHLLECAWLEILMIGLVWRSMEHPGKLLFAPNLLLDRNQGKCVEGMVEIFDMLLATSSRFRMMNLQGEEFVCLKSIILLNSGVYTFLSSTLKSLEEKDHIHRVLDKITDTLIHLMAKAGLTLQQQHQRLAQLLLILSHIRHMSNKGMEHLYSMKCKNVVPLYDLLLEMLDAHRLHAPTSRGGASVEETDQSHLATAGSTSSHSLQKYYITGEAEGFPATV

The target of assay [4] is 3',5'-cyclic-AMP phosphodiesterase 4A (Homo sapiens, UniProt P27815). The format is functional.
Sequence of 3',5'-cyclic-AMP phosphodiesterase 4A (P27815 whole entry): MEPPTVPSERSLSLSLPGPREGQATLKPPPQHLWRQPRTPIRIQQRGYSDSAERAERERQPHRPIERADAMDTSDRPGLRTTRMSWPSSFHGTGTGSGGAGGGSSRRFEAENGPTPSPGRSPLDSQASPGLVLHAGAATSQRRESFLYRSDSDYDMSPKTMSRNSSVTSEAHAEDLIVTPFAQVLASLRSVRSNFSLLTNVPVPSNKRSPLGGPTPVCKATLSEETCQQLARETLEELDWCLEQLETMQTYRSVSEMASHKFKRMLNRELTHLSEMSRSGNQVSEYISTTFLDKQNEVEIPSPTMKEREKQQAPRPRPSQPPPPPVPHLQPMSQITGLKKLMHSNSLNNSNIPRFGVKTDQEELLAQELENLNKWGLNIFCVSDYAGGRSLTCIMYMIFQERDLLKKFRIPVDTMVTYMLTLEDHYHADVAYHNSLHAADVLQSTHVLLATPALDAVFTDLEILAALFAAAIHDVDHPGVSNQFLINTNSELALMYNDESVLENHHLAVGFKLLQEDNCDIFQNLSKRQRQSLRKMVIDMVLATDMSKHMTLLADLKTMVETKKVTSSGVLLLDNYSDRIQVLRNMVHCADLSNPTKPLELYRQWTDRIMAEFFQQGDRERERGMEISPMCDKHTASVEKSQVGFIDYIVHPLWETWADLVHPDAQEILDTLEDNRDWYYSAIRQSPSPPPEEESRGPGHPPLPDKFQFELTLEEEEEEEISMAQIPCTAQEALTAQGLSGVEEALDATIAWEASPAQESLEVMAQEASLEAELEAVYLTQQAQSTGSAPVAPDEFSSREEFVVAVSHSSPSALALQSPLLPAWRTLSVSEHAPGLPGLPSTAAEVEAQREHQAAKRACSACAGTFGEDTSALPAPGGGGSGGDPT
The target in assay [5] is Prostaglandin G/H synthase 1 (Homo sapiens, UniProt P23219). Type of assay: functional.
Sequence of Prostaglandin G/H synthase 1 (P23219 whole entry): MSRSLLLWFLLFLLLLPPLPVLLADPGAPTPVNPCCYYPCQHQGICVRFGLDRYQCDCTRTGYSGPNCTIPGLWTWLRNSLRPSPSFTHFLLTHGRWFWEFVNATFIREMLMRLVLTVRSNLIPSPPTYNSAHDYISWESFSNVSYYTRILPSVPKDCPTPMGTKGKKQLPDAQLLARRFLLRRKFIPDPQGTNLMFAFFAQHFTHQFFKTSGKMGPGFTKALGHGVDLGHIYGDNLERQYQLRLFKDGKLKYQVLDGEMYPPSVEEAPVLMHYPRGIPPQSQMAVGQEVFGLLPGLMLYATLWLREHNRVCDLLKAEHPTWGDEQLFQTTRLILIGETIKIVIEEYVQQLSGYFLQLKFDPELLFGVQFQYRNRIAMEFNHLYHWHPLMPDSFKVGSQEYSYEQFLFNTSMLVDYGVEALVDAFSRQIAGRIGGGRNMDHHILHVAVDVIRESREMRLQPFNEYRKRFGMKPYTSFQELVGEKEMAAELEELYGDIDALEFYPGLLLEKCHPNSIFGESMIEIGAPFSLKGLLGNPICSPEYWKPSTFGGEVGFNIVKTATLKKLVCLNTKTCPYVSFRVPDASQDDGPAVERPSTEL
Assay [6] has as its target Sodium-dependent dopamine transporter (Homo sapiens, UniProt Q01959).
Another assay concerns the target T4, Thromboxane A2 receptor (Homo sapiens, UniProt P21731).
T4 sequence (P21731 whole entry): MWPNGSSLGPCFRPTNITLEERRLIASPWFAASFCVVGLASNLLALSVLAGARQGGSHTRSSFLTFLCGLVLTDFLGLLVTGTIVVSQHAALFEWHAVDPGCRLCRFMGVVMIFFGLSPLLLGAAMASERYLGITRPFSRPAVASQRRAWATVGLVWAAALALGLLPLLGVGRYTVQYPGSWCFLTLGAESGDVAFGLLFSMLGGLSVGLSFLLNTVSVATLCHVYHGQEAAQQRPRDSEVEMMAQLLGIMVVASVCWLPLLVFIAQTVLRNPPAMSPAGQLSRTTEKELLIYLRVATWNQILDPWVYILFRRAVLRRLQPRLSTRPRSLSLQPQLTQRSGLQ
Type of assay: functional, cell-based.

Assay [7] deals with T5, Peroxisome proliferator-activated receptor gamma (Homo sapiens, UniProt P37231).
T5 sequence (P37231 whole entry): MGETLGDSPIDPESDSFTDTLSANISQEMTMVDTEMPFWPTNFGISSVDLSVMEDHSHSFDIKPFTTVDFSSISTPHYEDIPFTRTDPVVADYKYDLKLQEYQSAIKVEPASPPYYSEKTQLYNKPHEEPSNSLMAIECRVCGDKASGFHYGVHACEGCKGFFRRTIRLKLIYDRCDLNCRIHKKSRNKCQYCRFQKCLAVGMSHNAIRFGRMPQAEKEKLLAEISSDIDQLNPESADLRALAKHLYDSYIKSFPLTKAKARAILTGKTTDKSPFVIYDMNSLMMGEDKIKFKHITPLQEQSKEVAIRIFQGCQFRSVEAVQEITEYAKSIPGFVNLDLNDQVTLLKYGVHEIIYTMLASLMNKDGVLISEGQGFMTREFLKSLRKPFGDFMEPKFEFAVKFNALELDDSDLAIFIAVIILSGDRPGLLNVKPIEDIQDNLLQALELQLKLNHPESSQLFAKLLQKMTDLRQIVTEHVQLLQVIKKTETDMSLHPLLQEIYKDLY
Type of assay: functional.

The next assay concerns the target T6, B1 bradykinin receptor (Homo sapiens, UniProt P46663).
T6 sequence (P46663 whole entry): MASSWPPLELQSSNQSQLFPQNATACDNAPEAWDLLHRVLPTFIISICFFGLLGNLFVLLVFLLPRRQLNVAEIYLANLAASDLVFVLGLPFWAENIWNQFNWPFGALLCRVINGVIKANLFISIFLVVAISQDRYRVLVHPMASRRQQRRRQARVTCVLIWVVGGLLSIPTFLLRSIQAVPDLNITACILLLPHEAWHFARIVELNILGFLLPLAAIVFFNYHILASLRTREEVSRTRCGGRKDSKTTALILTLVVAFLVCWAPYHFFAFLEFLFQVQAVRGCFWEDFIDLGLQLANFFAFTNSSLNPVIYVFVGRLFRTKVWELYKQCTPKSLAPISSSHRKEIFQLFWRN
Note: assay procedure not described here.

T1 sequence (P35367 whole entry): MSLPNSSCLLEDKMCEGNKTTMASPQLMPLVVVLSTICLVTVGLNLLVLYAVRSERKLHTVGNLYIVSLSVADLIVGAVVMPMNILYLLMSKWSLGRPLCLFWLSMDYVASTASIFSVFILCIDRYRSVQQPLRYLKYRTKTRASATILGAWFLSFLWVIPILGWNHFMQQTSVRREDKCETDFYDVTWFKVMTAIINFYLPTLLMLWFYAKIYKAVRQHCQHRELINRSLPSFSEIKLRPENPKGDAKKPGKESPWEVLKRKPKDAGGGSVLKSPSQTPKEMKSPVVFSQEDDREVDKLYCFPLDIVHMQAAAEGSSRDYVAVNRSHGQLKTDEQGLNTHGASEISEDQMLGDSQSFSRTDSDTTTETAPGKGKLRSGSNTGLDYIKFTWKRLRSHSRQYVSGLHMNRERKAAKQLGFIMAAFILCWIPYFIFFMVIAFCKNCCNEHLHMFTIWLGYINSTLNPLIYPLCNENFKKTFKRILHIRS
Sequence of Histamine H2 receptor (P25021 whole entry): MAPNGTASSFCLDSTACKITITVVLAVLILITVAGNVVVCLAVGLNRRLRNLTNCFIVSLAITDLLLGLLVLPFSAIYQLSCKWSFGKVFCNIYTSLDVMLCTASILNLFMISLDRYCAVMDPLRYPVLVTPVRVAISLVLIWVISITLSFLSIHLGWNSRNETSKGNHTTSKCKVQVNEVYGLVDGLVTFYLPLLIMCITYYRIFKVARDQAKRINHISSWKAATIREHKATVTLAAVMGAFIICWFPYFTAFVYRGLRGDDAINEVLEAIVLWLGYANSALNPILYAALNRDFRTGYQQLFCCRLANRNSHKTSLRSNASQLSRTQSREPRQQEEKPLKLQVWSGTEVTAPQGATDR
Sequence of D(1A) dopamine receptor (P21728 whole entry): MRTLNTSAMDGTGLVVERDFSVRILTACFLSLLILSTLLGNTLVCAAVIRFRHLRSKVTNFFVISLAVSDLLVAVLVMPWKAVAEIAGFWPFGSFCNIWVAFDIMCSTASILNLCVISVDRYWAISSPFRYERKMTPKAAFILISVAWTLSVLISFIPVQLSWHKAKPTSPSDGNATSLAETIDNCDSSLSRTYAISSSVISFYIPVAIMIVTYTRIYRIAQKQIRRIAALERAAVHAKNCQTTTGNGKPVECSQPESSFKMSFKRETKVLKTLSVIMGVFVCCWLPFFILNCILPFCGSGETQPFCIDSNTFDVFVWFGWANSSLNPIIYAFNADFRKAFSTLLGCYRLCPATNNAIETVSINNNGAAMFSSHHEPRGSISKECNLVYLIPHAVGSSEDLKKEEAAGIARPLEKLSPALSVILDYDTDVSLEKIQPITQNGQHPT
Sequence of D(3) dopamine receptor (P35462 whole entry): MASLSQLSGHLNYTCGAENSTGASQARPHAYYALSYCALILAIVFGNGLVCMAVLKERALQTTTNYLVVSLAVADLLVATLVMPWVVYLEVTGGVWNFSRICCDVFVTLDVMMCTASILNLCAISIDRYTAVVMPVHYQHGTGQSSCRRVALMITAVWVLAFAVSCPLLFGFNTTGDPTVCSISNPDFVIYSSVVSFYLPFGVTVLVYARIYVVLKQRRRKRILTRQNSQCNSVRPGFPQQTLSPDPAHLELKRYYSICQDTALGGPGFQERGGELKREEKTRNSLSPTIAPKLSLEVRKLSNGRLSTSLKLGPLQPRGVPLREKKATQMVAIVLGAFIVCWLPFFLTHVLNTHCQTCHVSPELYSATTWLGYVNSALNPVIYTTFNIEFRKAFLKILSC
Sequence of Histamine H3 receptor (Q9Y5N1 whole entry): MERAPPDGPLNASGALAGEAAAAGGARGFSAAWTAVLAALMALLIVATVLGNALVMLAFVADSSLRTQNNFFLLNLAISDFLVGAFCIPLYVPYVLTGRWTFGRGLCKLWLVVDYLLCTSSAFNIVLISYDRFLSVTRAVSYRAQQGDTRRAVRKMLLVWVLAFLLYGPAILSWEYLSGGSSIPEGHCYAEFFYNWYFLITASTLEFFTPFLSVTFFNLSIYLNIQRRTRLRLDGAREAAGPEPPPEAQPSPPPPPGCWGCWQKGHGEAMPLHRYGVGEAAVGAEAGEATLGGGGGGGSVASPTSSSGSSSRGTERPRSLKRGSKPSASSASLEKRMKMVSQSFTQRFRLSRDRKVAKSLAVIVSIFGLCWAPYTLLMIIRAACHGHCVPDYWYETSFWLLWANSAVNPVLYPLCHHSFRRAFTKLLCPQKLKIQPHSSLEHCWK
Sequence of Sodium-dependent dopamine transporter (Q01959 whole entry): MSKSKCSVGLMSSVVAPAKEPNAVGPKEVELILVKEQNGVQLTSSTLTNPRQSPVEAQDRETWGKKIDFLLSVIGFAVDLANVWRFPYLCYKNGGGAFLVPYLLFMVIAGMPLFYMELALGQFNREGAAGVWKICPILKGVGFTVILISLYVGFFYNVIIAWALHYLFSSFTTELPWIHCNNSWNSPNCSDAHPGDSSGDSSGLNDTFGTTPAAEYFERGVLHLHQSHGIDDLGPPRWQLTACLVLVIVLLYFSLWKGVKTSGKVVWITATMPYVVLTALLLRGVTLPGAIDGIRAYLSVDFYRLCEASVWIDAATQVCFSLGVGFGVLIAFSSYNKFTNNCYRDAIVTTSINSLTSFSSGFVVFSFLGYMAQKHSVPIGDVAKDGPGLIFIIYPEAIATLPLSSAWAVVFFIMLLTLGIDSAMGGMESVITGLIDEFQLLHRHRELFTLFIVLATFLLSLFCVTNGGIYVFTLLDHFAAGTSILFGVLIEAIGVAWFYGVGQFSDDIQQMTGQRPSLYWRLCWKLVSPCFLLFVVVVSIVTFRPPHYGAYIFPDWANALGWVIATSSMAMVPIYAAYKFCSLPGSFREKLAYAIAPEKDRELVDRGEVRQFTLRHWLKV

Consider `OCc1cc(C(O)CNCCCCCCOCCCCc2ccccc2)ccc1O` (stereo not given) [SALMETEROL], for which the AC50 at Histamine H1 receptor [1] and at Histamine H1 receptor [2] was above 30 µM each time.

With `Cn1cnc2c(F)c(Nc3ccc(Br)cc3Cl)c(C(=O)NOCCO)cc21` [SELUMETINIB], the AC50 (on Histamine H2 receptor; in [3]) was above 10 µM each time.

For the compound `O=C(O)CCCCC1CCSS1` (stereo not drawn) [LIPOIC ACID, ALPHA], the AC50 was above 30 µM on Adenosine receptor A3; above 30 µM at D(1A) dopamine receptor; above 30 µM on D(3) dopamine receptor; above 10 µM on Estrogen receptor; above 30 µM on Histamine H3 receptor; above 30 µM in [4]. Also, the AC50 (in [5]; in [6]; on Thromboxane A2 receptor) was above 30 µM throughout.

The compound `Oc1ccc2c(c1)[C@@]13CCCC[C@@]1(O)[C@@H](C2)N(CC1CCC1)CC3` [BUTORPHANOL] returned an AC50 in assay [7] above 30 µM.

On to `CCN1CCCC1CNC(=O)c1cc(S(=O)(=O)CC)c(N)cc1OC` (stereo not given) [AMISULPRIDE], for which the AC50 (on Histamine H1 receptor [1]; at Histamine H1 receptor [2]; in assay [7]) was above 30 µM in each case.

On B1 bradykinin receptor, `CC(=O)OCC(=O)[C@@]1(O)[C@H](C)C[C@H]2[C@@H]3CCC4=CC(=O)C=C[C@]4(C)[C@@]3(F)[C@@H](O)C[C@@]21C` [DEXAMETHASONE ACETATE] displayed an AC50 above 30 µM.

Take `Cn1c(=O)cc(N2CCC[C@@H](N)C2)n(Cc2ccccc2C#N)c1=O` [ALOGLIPTIN]: the AC50 at B1 bradykinin receptor was above 30 µM; at Histamine H2 receptor, above 10 µM; in assay [3], above 10 µM.

For `Nc1c2ccccc2nc2ccccc12` [AMINACRINE], the AC50 at Adenosine receptor A3 is 9.62 µM; on D(1A) dopamine receptor, 11.7 µM; at D(3) dopamine receptor it was above 30 µM; at Estrogen receptor, above 30 µM; at Histamine H3 receptor, above 30 µM; in assay [4] it was above 30 µM. Also, the AC50 (in assay [5]; in assay [6]; at Thromboxane A2 receptor) was above 30 µM in each case.

By AC50 is commonly meant the midpoint of the concentration-response curve, whichever way the signal moves.
